Experimental data taken from US20230304010A1, “COMPOSITIONS AND METHODS FOR TREATING VIRAL INFECTIONS” (priority 2020, published 2023).
Ends that are not written are not given here.

Tests used:
[1] = test system: ACE2 : SARS-CoV-2 Spike Epsilon (B1429) variant; format: binding
[2] = test system: ACE2 : SARS-CoV-2 Spike Gamma (P1/Brazil) variant; format: binding
[3] = test system: ACE2 : SARS-CoV-2 Spike Alpha (B1.1.7/United Kingdom) variant; format: binding; conditions: read-out: IC50, Alpha (B117)
[4] = test system: ACE2 : SARS-CoV-2 Spike Delta (B1 617 2/India) variant; format: binding; conditions: read-out: IC50, Delta (B1617)
[5] = test system: ACE2 : SARS-CoV-2 Spike Beta (B1.351/South Africa) variant; format: binding; conditions: read-out: IC50, Beta (B1312)
[6] = test system: SARS-CoV-2 variants (Alpha/Beta/Delta); format: cell-based

Substance: Ac-KTFLDKFNHEAEDLFPGPKWSAFLKEQSTLAQMYG [Seq28]
- IC50 [1]: 28.8 ± 7 nM
- IC50 [2]: 41.7 ± 11 nM
- IC50 [3]: 24.6 ± 11 nM
- IC50 [4]: 29.2 ± 11 nM
- IC50 [5]: 31.5 ± 5 nM
- fold stronger anti-SARS-CoV-2 activity than Remdesivir [6]: 200 fold
